Laboratory results from ChEMBL document CHEMBL3046021, “Docking and QSAR studies of new 1,4-dihydropyridines containing 4(5)-chloro-2-methyl-5(4)-imidazolyl substituent” (Med Chem Res, 2012).

Biological target: Voltage-dependent L-type calcium channel subunit alpha-1C (Cavia porcellus, UniProt O35505)
Test: Inhibition of L-type calcium channel in Cavia porcellus (guinea pig) ileal SMC assessed as inhibition of 80 mM KCl-induced current

Chain of Voltage-dependent L-type calcium channel subunit alpha-1C (O35505 whole entry): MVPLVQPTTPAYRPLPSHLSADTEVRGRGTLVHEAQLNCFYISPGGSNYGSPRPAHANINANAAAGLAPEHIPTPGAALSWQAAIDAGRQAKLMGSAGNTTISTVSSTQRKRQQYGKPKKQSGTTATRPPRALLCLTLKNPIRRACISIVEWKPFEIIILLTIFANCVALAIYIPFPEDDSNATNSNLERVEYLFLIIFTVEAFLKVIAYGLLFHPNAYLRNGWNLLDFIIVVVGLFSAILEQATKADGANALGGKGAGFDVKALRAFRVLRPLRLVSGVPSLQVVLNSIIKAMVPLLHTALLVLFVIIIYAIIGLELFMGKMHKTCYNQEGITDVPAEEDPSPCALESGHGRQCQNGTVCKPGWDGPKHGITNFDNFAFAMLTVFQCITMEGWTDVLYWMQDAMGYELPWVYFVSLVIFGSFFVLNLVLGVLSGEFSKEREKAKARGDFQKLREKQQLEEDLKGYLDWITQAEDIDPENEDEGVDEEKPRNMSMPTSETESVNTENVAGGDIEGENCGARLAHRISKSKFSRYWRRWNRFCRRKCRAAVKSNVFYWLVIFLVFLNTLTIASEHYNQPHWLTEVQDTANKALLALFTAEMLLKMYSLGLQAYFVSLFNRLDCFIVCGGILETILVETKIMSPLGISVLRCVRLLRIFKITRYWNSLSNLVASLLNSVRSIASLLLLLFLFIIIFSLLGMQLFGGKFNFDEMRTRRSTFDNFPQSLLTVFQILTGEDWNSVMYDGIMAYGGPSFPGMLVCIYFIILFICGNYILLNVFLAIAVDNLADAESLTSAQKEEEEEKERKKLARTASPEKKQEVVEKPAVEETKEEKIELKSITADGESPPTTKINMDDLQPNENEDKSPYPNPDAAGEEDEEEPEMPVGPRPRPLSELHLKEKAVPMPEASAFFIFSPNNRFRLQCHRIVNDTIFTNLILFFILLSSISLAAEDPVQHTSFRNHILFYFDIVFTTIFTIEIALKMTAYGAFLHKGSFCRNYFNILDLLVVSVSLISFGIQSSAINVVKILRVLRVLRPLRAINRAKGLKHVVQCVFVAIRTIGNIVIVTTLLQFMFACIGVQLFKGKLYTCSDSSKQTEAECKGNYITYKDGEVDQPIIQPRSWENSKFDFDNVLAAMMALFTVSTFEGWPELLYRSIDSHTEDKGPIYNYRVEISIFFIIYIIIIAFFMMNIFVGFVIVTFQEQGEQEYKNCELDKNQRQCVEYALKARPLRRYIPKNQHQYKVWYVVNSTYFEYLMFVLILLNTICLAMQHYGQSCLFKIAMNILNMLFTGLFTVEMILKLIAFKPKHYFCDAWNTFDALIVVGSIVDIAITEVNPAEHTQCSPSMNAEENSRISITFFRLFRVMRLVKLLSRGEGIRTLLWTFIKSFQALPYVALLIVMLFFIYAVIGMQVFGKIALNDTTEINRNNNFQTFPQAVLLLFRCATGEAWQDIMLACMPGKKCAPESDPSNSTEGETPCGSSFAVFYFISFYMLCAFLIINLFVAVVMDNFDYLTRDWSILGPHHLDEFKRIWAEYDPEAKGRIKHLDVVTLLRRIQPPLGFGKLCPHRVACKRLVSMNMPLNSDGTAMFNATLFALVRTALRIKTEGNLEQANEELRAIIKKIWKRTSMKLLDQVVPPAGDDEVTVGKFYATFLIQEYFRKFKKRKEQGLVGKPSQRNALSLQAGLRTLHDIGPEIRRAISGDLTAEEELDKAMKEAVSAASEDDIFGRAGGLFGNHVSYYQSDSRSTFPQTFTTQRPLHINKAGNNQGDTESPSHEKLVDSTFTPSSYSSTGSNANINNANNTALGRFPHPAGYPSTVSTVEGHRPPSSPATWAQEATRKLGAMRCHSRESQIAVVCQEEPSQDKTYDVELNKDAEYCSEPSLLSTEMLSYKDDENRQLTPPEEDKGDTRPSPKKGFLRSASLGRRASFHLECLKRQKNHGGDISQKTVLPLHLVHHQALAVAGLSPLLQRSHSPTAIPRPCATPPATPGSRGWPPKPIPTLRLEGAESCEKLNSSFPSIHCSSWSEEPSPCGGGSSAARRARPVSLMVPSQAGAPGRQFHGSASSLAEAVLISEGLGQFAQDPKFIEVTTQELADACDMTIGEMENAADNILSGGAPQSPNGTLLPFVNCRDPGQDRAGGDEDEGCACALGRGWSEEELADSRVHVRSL

Compound	IC50 [nM]
CCOC(=O)C1=C(C)NC(C)=C(C(=O)OCC2CCCCC2)C1c1[nH]c(C)nc1Cl (stereo not drawn)	513
COC(=O)C1=C(C)NC(C)=C(C(=O)OC)C1c1[nH]c(C)nc1Cl	1200
CCCOC(=O)C1=C(C)NC(C)=C(C(=O)OCC)C1c1[nH]c(C)nc1Cl (stereo not drawn)	407
CCCOC(=O)C1=C(C)NC(C)=C(C(=O)OCCC)C1c1[nH]c(C)nc1Cl	63.1
CC1=C(C(=O)OCCc2ccccc2)C(c2nc(C)[nH]c2Cl)C(C(=O)OCCc2ccccc2)=C(C)N1	0.182
COC(=O)C1=C(C)NC(C)=C(C(=O)OCCc2ccccc2)C1c1[nH]c(C)nc1Cl (stereo not drawn)	79.4
CCOC(=O)C1=C(C)NC(C)=C(C(=O)OCc2ccccc2)C1c1[nH]c(C)nc1Cl (stereo not drawn)	91.2
CC1=C(C(=O)OCCCc2ccccc2)C(c2nc(C)[nH]c2Cl)C(C(=O)OCCCc2ccccc2)=C(C)N1	1.74
COC(=O)C1=C(C)NC(C)=C(C(=O)OC(C)(C)C)C1c1[nH]c(C)nc1Cl (stereo not drawn)	1860
CC1=C(C(=O)OCC2CCCCC2)C(c2[nH]c(C)nc2Cl)C(C(=O)OCC2CCCCC2)=C(C)N1	631
CCOC(=O)C1=C(C)NC(C)=C(C(=O)OC(C)(C)C)C1c1[nH]c(C)nc1Cl (stereo not drawn)	1660
CC1=C(C(=O)OCC(C)C)C(c2[nH]c(C)nc2Cl)C(C(=O)OCC(C)C)=C(C)N1	95.5
CCCOC(=O)C1=C(C)NC(C)=C(C(=O)OC)C1c1[nH]c(C)nc1Cl (stereo not drawn)	437
CC1=C(C(=O)OC2CCCCC2)C(c2[nH]c(C)nc2Cl)C(C(=O)OC2CCCCC2)=C(C)N1	955
COC(=O)C1=C(C)NC(C)=C(C(=O)OCC2CCCCC2)C1c1[nH]c(C)nc1Cl (stereo not drawn)	355
CCOC(=O)C1=C(C)NC(C)=C(C(=O)OCC)C1c1[nH]c(C)nc1Cl	437
CC1=C(C(=O)OC(C)(C)C)C(c2[nH]c(C)nc2Cl)C(C(=O)OC(C)(C)C)=C(C)N1	4070
COC(=O)C1=C(C)NC(C)=C(C(=O)OCc2ccccc2)C1c1[nH]c(C)nc1Cl (stereo not drawn)	93.3
CC1=C(C(=O)OC(C)C)C(c2[nH]c(C)nc2Cl)C(C(=O)OC(C)C)=C(C)N1	38
CCOC(=O)C1=C(C)NC(C)=C(C(=O)OCCc2ccccc2)C1c1[nH]c(C)nc1Cl (stereo not drawn)	70.8
CC1=C(C(=O)OCc2ccccc2)C(c2nc(C)[nH]c2Cl)C(C(=O)OCc2ccccc2)=C(C)N1	41.7
CCOC(=O)C1=C(C)NC(C)=C(C(=O)OC)C1c1[nH]c(C)nc1Cl (stereo not drawn)	661
CC1=C(C(=O)OC2CCCC2)C(c2[nH]c(C)nc2Cl)C(C(=O)OC2CCCC2)=C(C)N1	97.7
